Test results reported in patent US20080319065A1, “Systemic and Intrathecal Effects of a Novel Series of Phospholipase A2 Inhibitors on Hyperalgesia and Spinal Pge2 Release” (The Regents of the University of California, priority 2005, published 2008).

What was measured:
GVIA PLA2 = target: T1, GVIA PLA2 (Homo sapiens, UniProt O60733); assay: Time dependence and reversibility of GVIA PLA2 inhibition; type: biochemical
T1 sequence (O60733 1-806): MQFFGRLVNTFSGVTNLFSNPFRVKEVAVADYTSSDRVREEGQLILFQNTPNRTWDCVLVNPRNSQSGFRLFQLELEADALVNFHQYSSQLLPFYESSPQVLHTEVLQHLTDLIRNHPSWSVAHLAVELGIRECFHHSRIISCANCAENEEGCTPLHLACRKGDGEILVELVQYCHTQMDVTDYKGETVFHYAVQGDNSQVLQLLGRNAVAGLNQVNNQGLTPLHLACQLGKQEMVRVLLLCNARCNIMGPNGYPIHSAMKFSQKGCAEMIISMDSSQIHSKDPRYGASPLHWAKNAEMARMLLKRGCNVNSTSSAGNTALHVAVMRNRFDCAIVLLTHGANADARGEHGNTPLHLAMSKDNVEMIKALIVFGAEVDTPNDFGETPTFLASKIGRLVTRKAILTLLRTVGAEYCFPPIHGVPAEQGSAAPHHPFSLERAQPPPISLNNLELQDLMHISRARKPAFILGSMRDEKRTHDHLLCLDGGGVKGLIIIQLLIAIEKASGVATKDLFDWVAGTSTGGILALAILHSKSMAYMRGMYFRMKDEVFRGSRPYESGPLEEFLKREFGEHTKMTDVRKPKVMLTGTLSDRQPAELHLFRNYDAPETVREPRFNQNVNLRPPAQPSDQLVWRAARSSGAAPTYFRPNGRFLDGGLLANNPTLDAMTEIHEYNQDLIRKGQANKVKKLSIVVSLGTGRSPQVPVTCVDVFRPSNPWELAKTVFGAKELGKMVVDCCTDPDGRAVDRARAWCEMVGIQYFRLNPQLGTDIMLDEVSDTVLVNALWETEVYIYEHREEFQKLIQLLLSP
Procedure: GVIA PLA2 (25 ng) was preincubated with either AX010 or AX0073 (5 μM) for 0, 5, 15 or 30 minutes and then assayed in the standard GVIA PLA2 assay mix containing 5 μM inhibitor. The final concentration of the inhibitors in the assay mix was 0.01 mole fraction, and the samples were incubated for 30 minutes at 40° C. […] In the latter respect, 25 ng of GVIA PLA2 was pre-incubated with 10 μM AX010 or AX073 for 10 minutes before diluting the enzyme 1:50 into the standard GVIA PLA2 assay mix lacking inhibitor, and incubating for 30 minutes at 40° C. The final inhibitor concentration in these assays was 0.0004 mole fraction, well below surface concentrations that either AX010 or AX073 inhibit the enzyme.

[1] = target: T2, Group VIA iPLA2 (GVIA PLA2) (Homo sapiens, UniProt O60733); assay: In vitro Group VIA iPLA2 mixed micelle assay; type: biochemical
T2 sequence (O60733 1-806): T1 sequence (O60733 1-806)
Procedure: (§1) Numerous 2-oxoamides were tested for inhibition of PLA2s in in vitro assay systems. The data, summarized in Tables 1a, 1b and 2 are represented as XI(50) values unless otherwise noted. XI(50) is defined as the inhibitor concentration that produced 50% inhibition. XI(50) is used as opposed to the more common IC50 because GIVA and GVIA PLA2 are active at a two-dimensional lipid interface rather than in three-dimensional solution. (Deems, Anal. Biochem., 287:1-16, 2000). The 2-oxoamide inhibitors likely partition to the micelle interface and therefore must be represented as a percentage of surface concentration (mole fraction) as opposed to bulk concentration (molar units). (Kokotos, et al., J. Med. Chem., 45:2891-2893, 2002).
(§2) In vitro Group IV cPLA2 and Group VI iPLA2 assays were done as previously described (Kokotos, et al., supra, 2002). Briefly, 100 μM lipid substrate and 100,000 cpm radiolabeled analog were dried down under N2 and dissolved in assay buffer containing 400 μM Triton X-100 to yield a mixed micelle substrate solution. Inhibitors dissolved in DMSO were added to the reaction tubes and allowed to incubate with substrate for five minutes at 40° C. Pure enzyme was added to yield a final volume of 500 μl, and digestion was carried out at 40° C. for 30 minutes. Reactions were quenched and extracted using the Dole method and products were quantified by liquid scintillation counting. Percent inhibition was determined at a range of inhibitor mole fraction concentrations for XI(50) calculations.

GV sPLA2 = target: T3, GV sPLA2 (Homo sapiens, UniProt P39877); assay: GV sPLA2 activity assay; type: biochemical; details: at 0.091 mole fraction
T3 sequence (P39877 21-138): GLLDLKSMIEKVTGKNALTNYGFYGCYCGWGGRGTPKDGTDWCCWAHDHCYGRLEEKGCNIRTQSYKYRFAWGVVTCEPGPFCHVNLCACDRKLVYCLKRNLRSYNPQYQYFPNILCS
Procedure: GV sPLA2 activity was measured in a similar assay. The final assay buffer was composed of 50 mM Tris-HCl (pH 8.0) and 5 mM CaCl2. Each assay was performed in 500 μL total volume made up of 100 μL of 5× substrate solution (20 μL of 10 mM Triton X-100 and 80 μL assay buffer), 390 μL assay buffer, 10 μL GV sPLA2 solution (1 μL of 40 ng/μL stock and 9 μL assay buffer), and 5 μL of DMSO or 2-oxoamide in DMSO. The 5× substrate solution was prepared by drying down the phospholipids (in organic solvent) with N2. The appropriate volume of 10 mM Triton X-100 was added, heated and vortexed until clear. Then assay buffer was added to make a 5× substrate solution. The final mixed micelles were at 400 μM Triton X-100 and 100 μM DPPC (of which 100,000 cpm of ^14C-DPPC).

[2] = test system: murine RAW 264.7 macrophage-like cell line; assay: Long-term LPS stimulation, PGE2 release; type: cell-based; details: low μM range
Procedure: Several 2-oxoamides were tested in the long-term lipopolysaccharide (LPS) stimulation pathway in the murine RAW 264.7 macrophage-like cell line. (Raschke, et al., Cell, 1978, 15, 261-267). This pathway requires GIVA PLA2 activity and results in the extracellular release of many eicosanoid compounds including the prostaglandin PGE2. (Gijon, et al., leukoc. Biol., 1999, 65, 330-336). […] In the low μM range, AX041 and AX073 reduced PGE2 release by roughly 40% (FIG. 1(D)). At 1 μM and 5 μM concentrations, small activations were often seen. The in vitro and cellular results together are consistent with the known roles of GVIA PLA2 given that AX010, a selective GVIA inhibitor, had no cellular effect. […] Inhibitors selective for GIVA PLA2 or dual specificity inhibitors reduce PGE2 levels, also consistent with the known role of GIVA PLA2 in PGE2 production.

[3] = target: T4, Group IVA cPLA2 (GIVA PLA2) (Homo sapiens, UniProt P47712); assay: In vitro Group IVA cPLA2 mixed micelle assay; type: biochemical
T4 sequence (P47712 1-749): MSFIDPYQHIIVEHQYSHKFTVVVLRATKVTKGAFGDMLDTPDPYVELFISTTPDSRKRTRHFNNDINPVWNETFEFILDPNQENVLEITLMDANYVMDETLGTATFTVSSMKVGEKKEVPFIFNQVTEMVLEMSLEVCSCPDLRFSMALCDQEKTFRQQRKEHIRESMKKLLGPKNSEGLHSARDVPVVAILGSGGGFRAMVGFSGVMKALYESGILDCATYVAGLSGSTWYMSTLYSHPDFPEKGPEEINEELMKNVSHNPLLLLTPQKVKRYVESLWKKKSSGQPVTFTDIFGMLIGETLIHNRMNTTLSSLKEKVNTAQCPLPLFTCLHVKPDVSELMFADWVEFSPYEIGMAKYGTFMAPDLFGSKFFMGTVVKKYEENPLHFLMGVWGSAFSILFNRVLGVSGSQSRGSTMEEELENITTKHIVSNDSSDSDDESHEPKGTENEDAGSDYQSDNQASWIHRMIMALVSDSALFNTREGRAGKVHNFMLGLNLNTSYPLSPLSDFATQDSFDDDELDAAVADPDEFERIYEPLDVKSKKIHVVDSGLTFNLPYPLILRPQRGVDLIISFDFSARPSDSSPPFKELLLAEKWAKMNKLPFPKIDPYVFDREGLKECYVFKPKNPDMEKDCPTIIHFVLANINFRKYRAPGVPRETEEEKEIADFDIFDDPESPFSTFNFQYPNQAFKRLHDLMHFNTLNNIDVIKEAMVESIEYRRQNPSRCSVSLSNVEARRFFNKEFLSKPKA
Procedure: as §1, §2

COX-1 and COX-2 proteins = assay: COX Activity Assay kit, in vitro cyclooxygenase activity; type: biochemical; details: 50 μM
Procedure: Inhibitors dissolved in DMSO (study compounds) or ethanol (indomethacin) were added to 50 μM final concentration and allowed to incubate with the assay mixture including enzyme for 5 minutes. After addition of TMPD and arachidonic acid, samples were mixed and allowed to incubate 5 minutes at room temperature before reading absorbance at 595 nm to determine results. Results were calculated and percent inhibition values derived.

Compound | reversibility of GVIA PLA2 inhibition (GVIA PLA2; pre-incubated with 10 μM for 10 minutes, diluted 1:50, final 0.0004 mole fraction) | time-dependent inhibition of GVIA PLA2 (GVIA PLA2; preincubated 0, 5, 15 or 30 minutes, 5 μM inhibitor, 0.01 mole fraction) | Inhibition of GVIA PLA2, XI(50) [1] | melting point | efficacy against sPLA2 (GV sPLA2) | reduction of PGE2 release [2] | Inhibition of GIVA PLA2, XI(50) [3] | inhibition of cyclooxygenase activity (COX-1 and COX-2 proteins)
CCCCCCCCCCCCCCC(=O)C(=O)NC(C=CC(=O)OC)CCCC (centres unmarked) [AX073, 4-(2-Oxo-hexadecanoylamino)-oct-2-enoic acid methyl ester] | freely reversible inhibitors | no increased potency with prolonged incubation | XI(50) =0.032 ± 0.010 mole fraction | 48 to 50 °C | 75.3% | roughly 40% | XI(50) =0.018 ± 0.010 mole fraction | 
COc1ccc2c(c1)c(CC(=O)O)c(C)n2C(=O)c1ccc(Cl)cc1 [indomethacin, reference compound] |  |  |  |  |  |  |  | near complete inhibition
